Results from patent US9718812B2, “Substituted thiazole or oxazole P2X7 receptor antagonists” (Axxam S.P.A., priority 2014, dated 2017).

How the values were obtained:
P2X7 receptor = P2X7 receptor (Homo sapiens (Human), UniProt Q99572); experiment: YO-PRO-1 Uptake Assay (large pore form, Bz-ATP stimulated); type: cell-based; conditions: HEK-293 cells stably transfected with P2X7 receptor; Bz-ATP EC80 (30 μM); 5 μM YO-PRO-1
Text: YO-PRO®-1 is a fluorescent DNA-binding dye with a MW of 374 Da (Molecular Probes®, cat. Y3603). This method is based upon the presumed ability of YO-PRO®-1 to enter through the dilated or “large pore form” of P2X7 receptor and to bind to intracellular DNA whereupon it increases many fold its fluorescence intensity. The dye has an absorption spectrum compatible with excitation at 488 nm by argon laser sources and its emission wavelength is in the range of 515-575 nm. The aim of this assay was to validate the interaction of antagonists with P2X7 receptor using an alternative readout to Ca^2+-sensitive fluorescent dyes.
HEK-293 cells stably transfected with P2X7 receptor were seeded overnight in growth medium at 20,000 cells/well in 384-well plate. 24 hours later, the medium was removed, the cells were washed with Low Divalent Cation Assay Buffer (0.3 mM Ca2+ and 0 mM Mg2+) and then pre-loaded with 20 μL/w of 5 μM YO-PRO®-1 dye. […] fluorescence measurement immediately started. Then, 10 μL/w of test compounds and reference antagonist A438079 at 3×-concentration were injected with the […] and the kinetic response over a period of five minutes was monitored. A second injection of 10 μL/w of 3× Bz-ATP EC80 (30 μM) was performed with the […] and the signal of the emitted fluorescence was recorded for additional 60 minutes. All the experiment was carried out with a Low Divalent Cation Assay Buffer (0.3 mM Ca^2+ and 0 mM Mg^2+).
The effect of the test compounds was measured as percent inhibition vs the reference antagonist and IC50 values were calculated accordingly.

P2X7 receptor (hP2X7) = P2X7 receptor (hP2X7) (Homo sapiens (Human), UniProt Q99572); experiment: Screen Quest Fluo-8 No Wash Calcium Assay (Bz-ATP-induced Ca2+ influx, FLIPR TETRA); type: cell-based; conditions: HEK-293 cells stably transfected with P2X7 receptor, Fluo-8 calcium, Low Divalent Cation Assay Buffer
Protocol: Extracellular binding of Bz-ATP to P2X7 receptor opens the channel and allows Ca2+ influx into the cells. This Ca2+ entry was measured in HEK-293 cells stably transfected with P2X7 receptor using Screen Quest™ Fluo-8 No Wash Calcium Assay Kit (AAt Bioquest®, cat. 36316). Once inside the cell, the lipophilic blocking groups of Fluo-8 are cleaved by non-specific cell esterases, resulting in a negatively-charged fluorescent dye that stays inside cells. Its fluorescence increases upon binding to calcium. When HEK-293/P2X7 cells are stimulated with Bz-ATP, Ca2+ enters the cells and the fluorescence of Fluo-8 NW increases. The dye has an absorption spectrum compatible with excitation at 488 nm by argon laser sources and its emission wavelength is in the range of 515-575 nm.
HEK-293 cells stably transfected with P2X7 receptor were seeded overnight in growth medium at 10,000 to 20,000 cells/well in 384-well plate. 24 hours later, the medium was removed and the cells were pre-loaded at RT for 1 hour with 20 μL/w of Fluo-8 NW. Then 10 μL/w of test compounds and reference antagonist A438079 at 3×-concentration were injected with the […] and the kinetic response over a period of five minutes was monitored.

Sequence of P2X7 receptor (Q99572 whole entry): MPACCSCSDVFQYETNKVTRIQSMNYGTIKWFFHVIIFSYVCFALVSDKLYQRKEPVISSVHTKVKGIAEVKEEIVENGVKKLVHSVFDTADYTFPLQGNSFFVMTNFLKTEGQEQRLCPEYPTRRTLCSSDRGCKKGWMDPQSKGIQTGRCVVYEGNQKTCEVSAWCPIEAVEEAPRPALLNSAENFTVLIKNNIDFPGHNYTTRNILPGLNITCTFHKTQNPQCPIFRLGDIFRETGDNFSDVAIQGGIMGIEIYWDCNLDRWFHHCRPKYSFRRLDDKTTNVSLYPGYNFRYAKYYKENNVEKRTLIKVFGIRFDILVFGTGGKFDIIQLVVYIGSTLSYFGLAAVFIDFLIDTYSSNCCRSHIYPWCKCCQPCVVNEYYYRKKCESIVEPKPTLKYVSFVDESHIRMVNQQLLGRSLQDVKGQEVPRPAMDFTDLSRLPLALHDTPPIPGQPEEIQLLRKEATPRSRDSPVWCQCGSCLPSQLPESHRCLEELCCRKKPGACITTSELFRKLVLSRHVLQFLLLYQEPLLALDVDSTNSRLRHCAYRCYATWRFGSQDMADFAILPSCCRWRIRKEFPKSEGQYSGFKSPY
Sequence of P2X7 receptor (hP2X7) (Q99572 whole entry): as above

| Structure (SMILES) | IC50 (P2X7 receptor) [nM] | IC50 (P2X7 receptor (hP2X7)) [nM] |
| --- | --- | --- |
| O=C(NCC(c1cncs1)N1CCc2ccccc2C1)c1c(F)cccc1Cl (centres unmarked) [Compound 9, 2-chloro-N-[2-(3,4-dihydro-1H-isoquinolin-2-yl)-2-(1,3-thiazol-5-yl)-ethyl]-6-fluoro-benzamide] | 464 | 100 |
| Cc1cccc(C)c1C(=O)NCC(c1scnc1C)N1CCc2ccccc2C1 (centres unmarked) [Compound 30, 2,6-dimethyl-N-[2-(4-methyl-1,3-thiazol-5-yl)-2-(1,2,3,4-tetrahydroisoquinolin-2-yl)ethyl]benzamide] | 37 | 46 |
| Cc1ncc(C(CNC(=O)c2c(C)cccc2Cl)N2CCc3ccccc3C2)s1 (centres unmarked) [Compound 41, 2-chloro-6-methyl-N-[2-(2-methyl-1,3-thiazol-5-yl)-2-(1,2,3,4-tetrahydroisoquinolin-2-yl)ethyl]benzamide] | 996 | 853 |
| Cc1cccc(Cl)c1C(=O)NCC(c1cncs1)N1CCOCC1 (centres unmarked) [Compound 13, 2-chloro-6-methyl-N-[2-(morpholin-4-yl)-2-(1,3-thiazol-5-yl)ethyl]benzamide] | 271 | 64 |
| Cc1ncoc1C(CNC(=O)c1cc(-c2ncc(F)cn2)ccc1Cl)N1CCOCC1 (centres unmarked) [Compound 54, 2-chloro-5-(5-fluoropyrimidin-2-yl)-N-[2-(4-methyl-1,3-oxazol-5-yl)-2-(morpholin-4-yl)ethyl]benzamide] | 279 | 114 |
| COc1cccc(C(=O)NCC(c2cncs2)N2CCC(F)(F)CC2)c1OC (centres unmarked) [Compound 21, N-[2-(4,4-difluoropiperidin-1-yl)-2-(1,3-thiazol-5-yl)ethyl]-2,3-dimethoxybenzamide] | 129 | 31 |
| O=C(NCC(c1cnco1)N1CCC(OCc2ccccc2)CC1)c1c(F)cccc1Cl (centres unmarked) [Compound 63, N-{2-[4-(benzyloxy)piperidin-1-yl]-2-(1,3-oxazol-5-yl)ethyl}-2-chloro-6-fluorobenzamide] | 158 | 69 |
| Cc1ncsc1C(CNC(=O)c1c(F)cccc1Cl)N1CCC(F)(F)CC1 (centres unmarked) [Compound 31, 2-chloro-N-[2-(4,4-difluoropiperidin-1-yl)-2-(4-methyl-1,3-thiazol-5-yl)ethyl]-6-fluorobenzamide] | 229 | 31 |
| O=C(NCC(c1cnc(C2CCC2)s1)N1CCC(F)(F)CC1)c1cc(-c2ncc(F)cn2)ccc1Cl (centres unmarked) [Compound 111] | 326 | 1020 |
| Cc1cccc(Cl)c1C(=O)NCC(c1cncs1)N1CCC(OCc2ccccc2)CC1 (centres unmarked) [Compound 24, N-{2-[4-(benzyloxy)piperidin-1-yl]-2-(1,3-thiazol-5-yl)ethyl}-2-chloro-6-methylbenzamide] | 44 | 111 |
| Cc1ncc(C(CNC(=O)c2cc(-c3ncc(F)cn3)ccc2Cl)N2CCC(F)(F)CC2)s1 (single isomer, unassigned; (-)) [Compound 128, (−)-2-chloro-N-[2-(4,4-difluoro-piperidin-1-yl)-2-(2-methylthiazol-5-yl)ethyl]-5-(5-fluoropyrimidin-2-yl)benzamide] | 24 | 141 |
| O=C(NCC(c1cscn1)N1CCCOCC1)c1c(F)cccc1Cl (centres unmarked) [Compound 7] | 1690 | 840 |
| Cc1cccc(Cl)c1C(=O)NCC(c1scnc1C)N1CCOC(c2ccc(F)cc2F)C1 (centres unmarked) [Compound 101, 2-chloro-N-{2-[2-(2,4-difluorophenyl)morpholin-4-yl]-2-(4-methyl-1,3-thiazol-5-yl)ethyl}-6-methylbenzamide] | 42 | 114 |
| Nc1ccc(Cl)c(C(=O)NCC(c2cncs2)N2CCC(F)(F)CC2)c1 (centres unmarked) [Compound 16, 5-amino-2-chloro-N-[2-(4,4-difluoropiperidin-1-yl)-2-(1,3-thiazol-5-yl)ethyl]benzamide] | 98 | 32 |
| COc1cccc(C(=O)NCC(c2ocnc2C)N2CCOCC2)c1OC (centres unmarked) [Compound 53, 2,3-dimethoxy-N-[2-(4-methyl-1,3-oxazol-5-yl)-2-(morpholin-4-yl)ethyl]benzamide] | 4900 |  |
